Measurements: article PMC8508710, “Biochemical Characterization of 13-Lipoxygenases of Arabidopsis thaliana” (International Journal of Molecular Sciences, 2021)
Where “and” joins values, the source holds several entries; their conditions need not be identical. Equal values may be shown once.

Tests used:
[1] = target: T1, LOX2 (Arabidopsis thaliana, UniProt P38418); design: made in house; host or cells: E. coli Nico21(DE3), pET15b; method as in PMID 18949503; settings: cited from earlier work
T1 sequence (P38418 71-896): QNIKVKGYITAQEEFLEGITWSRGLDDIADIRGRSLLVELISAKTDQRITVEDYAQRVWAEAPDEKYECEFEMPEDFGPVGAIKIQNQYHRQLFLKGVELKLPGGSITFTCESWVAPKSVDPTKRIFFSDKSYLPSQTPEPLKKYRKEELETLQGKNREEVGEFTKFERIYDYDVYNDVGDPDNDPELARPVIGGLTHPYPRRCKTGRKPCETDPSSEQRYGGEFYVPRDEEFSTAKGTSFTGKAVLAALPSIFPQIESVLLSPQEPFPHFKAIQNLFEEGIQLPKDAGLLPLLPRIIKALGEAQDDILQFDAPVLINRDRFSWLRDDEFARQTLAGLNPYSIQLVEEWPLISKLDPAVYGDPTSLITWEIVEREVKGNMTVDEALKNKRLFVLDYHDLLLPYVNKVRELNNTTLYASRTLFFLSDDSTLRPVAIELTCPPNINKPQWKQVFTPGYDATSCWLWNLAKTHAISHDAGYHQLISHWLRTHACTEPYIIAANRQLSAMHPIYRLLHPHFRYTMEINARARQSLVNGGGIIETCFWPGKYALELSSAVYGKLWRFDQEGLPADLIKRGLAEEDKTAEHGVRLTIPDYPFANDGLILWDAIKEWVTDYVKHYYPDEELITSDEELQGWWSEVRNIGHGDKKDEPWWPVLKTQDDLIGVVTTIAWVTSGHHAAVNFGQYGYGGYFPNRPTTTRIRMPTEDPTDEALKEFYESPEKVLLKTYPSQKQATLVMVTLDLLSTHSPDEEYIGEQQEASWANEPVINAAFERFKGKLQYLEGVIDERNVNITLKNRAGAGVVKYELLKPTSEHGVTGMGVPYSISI

[2] = target: T1, LOX2; assay: LOX2 activity, spectrophotometric (conjugated diene formation at 234 nm); settings: substrate specificity; 31 µM PUFA, 4 µg 13-LOX, 50 mM Tris-HCl pH 7.2; LeA = 100%
[3] = target: T2, LOX3 (Arabidopsis thaliana, UniProt Q9LNR3); assay: LOX3 activity, spectrophotometric (conjugated diene formation at 234 nm); settings: substrate specificity; 31 µM PUFA, 4 µg 13-LOX, 50 mM Tris-HCl pH 7.2; LeA = 100%
T2 sequence (Q9LNR3 71-919): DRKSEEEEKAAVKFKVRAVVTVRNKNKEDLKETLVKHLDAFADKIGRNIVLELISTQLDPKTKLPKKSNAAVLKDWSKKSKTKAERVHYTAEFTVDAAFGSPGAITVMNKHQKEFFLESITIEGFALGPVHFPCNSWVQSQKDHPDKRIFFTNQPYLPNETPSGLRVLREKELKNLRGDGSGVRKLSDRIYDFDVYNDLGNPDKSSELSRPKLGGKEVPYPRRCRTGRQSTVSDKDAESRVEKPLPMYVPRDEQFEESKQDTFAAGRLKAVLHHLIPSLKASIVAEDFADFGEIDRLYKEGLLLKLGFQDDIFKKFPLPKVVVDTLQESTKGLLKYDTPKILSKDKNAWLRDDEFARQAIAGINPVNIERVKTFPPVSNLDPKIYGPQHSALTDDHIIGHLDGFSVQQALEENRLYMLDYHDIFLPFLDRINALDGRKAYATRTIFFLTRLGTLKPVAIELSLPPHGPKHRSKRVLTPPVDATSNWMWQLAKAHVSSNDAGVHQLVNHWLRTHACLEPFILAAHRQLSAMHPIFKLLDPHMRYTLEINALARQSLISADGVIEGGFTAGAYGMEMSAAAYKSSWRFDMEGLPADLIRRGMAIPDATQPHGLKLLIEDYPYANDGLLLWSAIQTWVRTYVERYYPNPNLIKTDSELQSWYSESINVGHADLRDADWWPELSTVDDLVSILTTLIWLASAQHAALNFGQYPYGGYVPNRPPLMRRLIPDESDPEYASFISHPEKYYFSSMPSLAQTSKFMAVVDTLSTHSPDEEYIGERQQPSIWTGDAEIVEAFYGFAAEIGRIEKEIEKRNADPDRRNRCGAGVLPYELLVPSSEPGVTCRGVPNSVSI

[4] = target: T3, LOX4 (Arabidopsis thaliana, UniProt Q9FNX8); assay: LOX4 activity, spectrophotometric (conjugated diene formation at 234 nm); settings: substrate specificity; 31 µM PUFA, 4 µg 13-LOX, 50 mM Tris-HCl pH 7.2; LeA = 100%
T3 sequence (Q9FNX8 71-926): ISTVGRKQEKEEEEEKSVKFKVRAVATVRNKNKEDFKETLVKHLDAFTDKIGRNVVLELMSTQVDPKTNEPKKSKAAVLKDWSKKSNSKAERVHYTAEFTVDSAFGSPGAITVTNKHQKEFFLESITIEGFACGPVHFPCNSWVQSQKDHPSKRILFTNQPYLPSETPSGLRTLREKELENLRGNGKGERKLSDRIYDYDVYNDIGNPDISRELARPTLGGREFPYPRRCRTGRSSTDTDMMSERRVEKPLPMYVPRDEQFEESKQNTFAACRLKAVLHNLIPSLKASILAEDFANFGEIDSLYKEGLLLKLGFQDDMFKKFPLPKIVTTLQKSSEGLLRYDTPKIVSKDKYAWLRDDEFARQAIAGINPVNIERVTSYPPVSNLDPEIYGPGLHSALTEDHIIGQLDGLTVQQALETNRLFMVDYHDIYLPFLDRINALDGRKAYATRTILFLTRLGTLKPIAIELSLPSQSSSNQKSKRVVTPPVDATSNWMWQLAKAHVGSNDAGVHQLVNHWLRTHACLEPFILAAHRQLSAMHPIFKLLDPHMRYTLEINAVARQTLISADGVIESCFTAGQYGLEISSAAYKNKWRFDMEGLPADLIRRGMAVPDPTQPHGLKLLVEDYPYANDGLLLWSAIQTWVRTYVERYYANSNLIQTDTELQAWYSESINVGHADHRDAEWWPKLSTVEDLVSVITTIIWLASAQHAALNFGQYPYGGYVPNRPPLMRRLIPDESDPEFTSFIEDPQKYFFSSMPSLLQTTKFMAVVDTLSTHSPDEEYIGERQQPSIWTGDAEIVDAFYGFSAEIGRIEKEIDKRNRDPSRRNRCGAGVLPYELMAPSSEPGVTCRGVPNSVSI

[5] = target: T4, LOX6 (Arabidopsis thaliana, UniProt Q9CAG3); assay: LOX6 activity, spectrophotometric (conjugated diene formation at 234 nm); settings: substrate specificity; 31 µM PUFA, 4 µg 13-LOX, 50 mM Tris-HCl pH 7.2; LeA = 100%
T4 sequence (Q9CAG3 41-917): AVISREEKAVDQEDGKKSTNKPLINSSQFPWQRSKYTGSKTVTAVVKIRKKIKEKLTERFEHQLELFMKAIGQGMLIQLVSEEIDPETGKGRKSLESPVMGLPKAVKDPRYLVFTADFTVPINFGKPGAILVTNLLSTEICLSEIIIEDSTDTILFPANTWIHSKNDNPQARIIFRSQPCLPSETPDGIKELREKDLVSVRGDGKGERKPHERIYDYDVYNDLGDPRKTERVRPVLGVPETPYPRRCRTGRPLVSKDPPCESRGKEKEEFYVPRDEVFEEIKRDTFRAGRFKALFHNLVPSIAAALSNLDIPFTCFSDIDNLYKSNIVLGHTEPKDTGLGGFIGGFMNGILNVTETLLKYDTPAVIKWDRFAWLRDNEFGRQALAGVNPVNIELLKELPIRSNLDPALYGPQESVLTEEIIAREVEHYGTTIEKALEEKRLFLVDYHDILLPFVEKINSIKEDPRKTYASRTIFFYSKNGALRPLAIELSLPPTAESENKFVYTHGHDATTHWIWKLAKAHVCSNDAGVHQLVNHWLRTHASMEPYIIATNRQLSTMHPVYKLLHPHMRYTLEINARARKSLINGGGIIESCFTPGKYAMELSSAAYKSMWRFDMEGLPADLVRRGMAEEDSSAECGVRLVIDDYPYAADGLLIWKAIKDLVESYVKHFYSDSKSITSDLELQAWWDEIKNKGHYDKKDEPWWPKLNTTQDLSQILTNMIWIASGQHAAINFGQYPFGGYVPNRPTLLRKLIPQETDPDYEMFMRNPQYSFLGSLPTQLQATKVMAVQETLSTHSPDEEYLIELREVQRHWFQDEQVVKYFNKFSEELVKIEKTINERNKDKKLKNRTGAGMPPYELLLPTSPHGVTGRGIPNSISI

[6] = target: T3, LOX4; assay: LOX4 activity, oxygen electrode (polarography); type: biochemical; design: made in house; host or cells: E. coli Nico21(DE3), pET15b; settings: 100 µM metal salt, LeA 30 µM in 20 mM HEPES pH 8.0, oxygen consumption vs control
[7] = target: T4, LOX6; assay: LOX6 activity, oxygen electrode (polarography); type: biochemical; design: made in house; host or cells: E. coli Nico21(DE3), pEXP5-NT/TOPO; settings: 100 µM metal salt, LeA 30 µM in 20 mM HEPES pH 8.0, oxygen consumption vs control
[8] = target: T2, LOX3; assay: LOX3 activity, oxygen electrode (polarography); type: biochemical; design: made in house; host or cells: E. coli Nico21(DE3), pET15b; settings: 100 µM metal salt, LeA 30 µM in 20 mM HEPES pH 8.0, oxygen consumption vs control
[9] = target: T1, LOX2; assay: LOX2 activity, oxygen electrode (polarography); type: biochemical; design: made in house; host or cells: E. coli Nico21(DE3), pET15b; settings: 100 µM metal salt, LeA 30 µM in 20 mM HEPES pH 8.0, oxygen consumption vs control

| Relative Activity (%) LOX2 [2] | Relative Activity (%) LOX3 [3] [%] | Relative Activity (%) LOX4 [4] [%] | Relative Activity (%) LOX6 [5] [%] | Relative Activity (%) LOX4 [6] | Relative Activity (%) LOX4 ([6]; listed as Cu^2+) | Relative Activity (%) LOX6 [7] | Relative Activity (%) LOX6 ([7]; listed as Cu^2+) | Relative Activity (%) LOX3 [8] | Relative Activity (%) LOX3 ([8]; listed as Cu^2+) | Relative Activity (%) LOX2 [9] [%] | Relative Activity (%) LOX2 ([9]; listed as Cu^2+) | Compound | LOX2 activity with PUFA (relative) [1] |
| --- | --- | --- | --- | --- | --- | --- | --- | --- | --- | --- | --- | --- | --- |
| 50% and 50 ± 4% | 5 ± 1 | 4 ± 1 | 8 ± 3 |  |  |  |  |  |  |  |  | CCCCC/C=C\C/C=C\C/C=C\C/C=C\CCCC(=O)O [ARA, arachidonic acid] | ~ 15% |
|  |  |  |  | no activity | abolished | no activity | abolished | no activity | abolished | 50 ± 20 | strongly decreased | [Cl][Cu][Cl] [CuCl2] |  |
| 56 ± 3% | 7 ± 1 | 8 ± 1 | 31 ± 3 |  |  |  |  |  |  |  |  | CC/C=C\C/C=C\C/C=C\C/C=C\C/C=C\C/C=C\CCC(=O)O [DHA, docosahexaenoic acid] |  |
